Data published in patent US5053402A, “Certain glyceryl phosphate-cyclic ammonium compounds useful for treating hypertension” (Nippon Chemiphar Co., Ltd., priority 1986, dated 1991).

Experiments:
blood pressure [1] = assay: Blood Pressure Reducing Action: Intravenous Injection; type: in vivo, Male Wister rats; conditions: anesthetized rat; for ED (50 mmHg reduction): iv, from dose-response curve, read-out: MABP50 (dose required for reducing average blood pressure by 50 mmHg); for Reduction of Blood Pressure: i.v.
Description: Male Wister rats (mean body weight: 420 g) were anesthetized by intra-peritoneal injection of 50 mg/kg of pentobarbital sodium and were fixed on their backs, and their blood pressures were measured at left femoral artery. Subsequently, a compound to be tested was dissolved in a saline solution containing 0.25% bovine serum albumin and injected into the rat through the right femoral vein.
A dose-response curve was prepared from the above values to determine a dose required for reducing average blood pressure by 50 mmHg (MABP50). MABP50 for the above compound was 21 ng/kg.

platelet = assay: Blood Platelet Agglutination Action; type: cell-based, male Japanese white rabbit; conditions: Oryctolagus cuniculus; for EC50: from agglutination curve
Description: A male Japanese white rabbit was anesthetized by pentobarbital, and a blood was collected in aqueous 3.13% sodium citrate solution at its carotid. The blood containing 1/10 volume ratio of the sodium citrate solution was treated in a conventional manner to give a platelet rich plasma (PRP) and a platelet poor plasma (PPP) for performing the following experiment.
PRP was diluted with PPP to give a sample containing platelets at 300,000/mm^3.
Agglutination of platelet was determined by means of Platelet Aggregation Tracer PAT-4A(available from Niko Bioscience Co., Ltd., Japan). 10 μl of a test solution was added to 190 μl of PRP to give a final solution of 2×10^-10 to 2×10^-4 M, and an agglutination curve is recorded. For the preparation of the test solution, a saline solution containing 0.25% bovine serum albumin.
Agglutination of Platelet

blood pressure [2] = assay: Blood Pressure Decreasing Action: Oral Administration; type: in vivo, Spontaneously hypertensive male rats; conditions: 10 mg/kg
Description: Spontaneously hypertensive male rates (average body weight: 359 g) were etherized and fixed on their backs. Blood pressure was measured for each rat through cannulation at its left femoral artery. A compound to be tested was dissolved in a distilled water and the resulting aqueous solution was administered orally.

SMILES | ED (50 mmHg reduction) (blood pressure [1]) | EC50 (platelet; table) | Reduction of Blood Pressure (blood pressure [2]; after 30 min) | Reduction of Blood Pressure (blood pressure [2]; after 1 hr) | Reduction of Blood Pressure (blood pressure [2]; after 2 hrs) | Reduction of Blood Pressure (blood pressure [2]; after 3 hrs) | Reduction of Blood Pressure (blood pressure [2]; after 4 hrs) | Reduction of Blood Pressure (blood pressure [2]; after 5 hrs) | Reduction of Blood Pressure (blood pressure [2]; after 6 hrs) | other results
CCCCCCCCCCCCCCCCOCC(OC(C)=O)C(OP(=O)([O-])OC1CC[N+](C)(C)C1)C(C)C (stereo not drawn) [Example 6, 2-Acetyloxy-3-hexadecyloxy-1-(1-methylethyl)-propyl 1,1-dimethylpyrrolidinio-3-yl phosphate] | 48 µg/kg | 5000 nM | – | – | – | – | – | – | – | –
CCCCCCCCCCCCCCCCOC(C)C(COP(=O)([O-])OC1CC[N+](C)(C)CC1)OC(C)=O (stereo not drawn) [Example 5, 2-Acetyloxy-3-hexadecyloxybutyl 1,1-dimethylpiperidinio-4-yl phosphate] | 8.6 µg/kg | 630 nM | +5.0 mmHg | 0 mmHg | -14.5 mmHg | -19.0 mmHg | -22.5 mmHg | -26.0 mmHg | -28.0 mmHg | –
CCCCCCCCCCCCCCCCOC(C)C(COP(=O)([O-])OC1CCC[N+](C)(C)C1)OC(C)=O (stereo not drawn) [Example 4, 2-Acetyloxy-3-hexadecyloxybutyl 1,1-dimethylpiperidinio-3-yl phosphate] | 0.34 µg/kg | 22 nM | -66.0 mmHg | -68.0 mmHg | -73.0 mmHg | -72.3 mmHg | -66.7 mmHg | -63.0 mmHg | -66.7 mmHg | –
CCCCCCCCCCCCCCCCOCC(COP(=O)([O-])OC1CCC[N+](C)(C)C1)OC(C)=O (stereo not drawn) [Example 1, 2-Acetyloxy-3-hexadecyloxypropyl 1,1-dimethylpiperidinio-3-yl phosphate] | 0.013 µg/kg | 0.6 nM | – | – | – | – | – | – | – | –
CCCCCCCCCCCCCCCCOCC(COP(=O)([O-])OC1CC[N+](C)(C)CC1)OC(C)=O (stereo not drawn) [Example 2, 2-Acetyloxy-3-hexadecyloxypropyl 1,1-dimethylpiperidinio-4-yl phosphate] | 0.058 µg/kg | 8 nM | – | – | – | – | – | – | – | –
CCCCCCCCCCCCCCCCOCC(COP(=O)([O-])OC1CC[N+](C)(C)C1)OC(C)=O (stereo not drawn) [Example 8, 2-Acetyloxy-3-hexadecyloxypropyl 1,1-dimethylpyrrolidinio-3-yl phosphate] | 0.021 µg/kg | – | – | – | – | – | – | – | – | Reduction of Blood Pressure (blood pressure [1]; 1 ng/kg): -4.5 ± 1.5 mmHg; Reduction of Blood Pressure (blood pressure [1]; 5 ng/kg): -21.5 ± 8.0 mmHg; Reduction of Blood Pressure (blood pressure [1]; 10 ng/kg): -47.5 ± 0.5 mmHg; Reduction of Blood Pressure (blood pressure [1]; 50 ng/kg): -52.6 ± 4.6 mmHg; Reduction of Blood Pressure (blood pressure [1]; 100 ng/kg): -67.0 ± 3.1 mmHg; activation at 2 µM (platelet; 2 × 10^-6 M, PRP = 0%, PPP = 100%): 86%; activation at 0.2 µM (platelet; 2 × 10^-7 M, PRP = 0%, PPP = 100%): 81%; activation at 0.02 µM (platelet; 2 × 10^-8 M, PRP = 0%, PPP = 100%): 67%; activation at 0.002 µM (platelet; 2 × 10^-9 M, PRP = 0%, PPP = 100%): 18%; activation at 0.0002 µM (platelet; 2 × 10^-10 M, PRP = 0%, PPP = 100%): 0%; EC50 (platelet): 18 nM
CCCCCCCCCCCCCCCCOC(C)C(COP(=O)([O-])OC1CC[N+](C)(C)C1)OC(C)=O (stereo not drawn) [Example 3, 2-Acetyloxy-3-hexadecyloxybutyl 1,1-dimethylpyrrolidinio-3-yl phosphate] | 8.5 µg/kg | 400 nM | -49.7 mmHg | -60.7 mmHg | -74.3 mmHg | -82.0 mmHg | -84.7 mmHg | -83.7 mmHg | -82.3 mmHg | –
